Test results from US6559170B1, “Pyridine derivatives having fungicidal activity and processes to produce and use same” (Dow AgroScience LLC, priority 1999, dated 2003).

Assays:
[1] = tested on: Phytophthora infestans—PHYTIN; format: in vivo; conditions: 100 ppm spray, 1-day protectant (1DP), tomatoes cultivar Rutgers
Erysiphe graminis—ERYSGT = assay: Powdery Mildew of Wheat, 1-day protectant whole plant test; format: in vivo; conditions: 100 ppm spray, 1-day protectant (1DP), wheat cultivar Monon
[2] = tested on: Leptosphaeria nodorum—LEPTNO; assay: Glume blotch of wheat, 1-day protectant whole plant test; format: in vivo; conditions: 100 ppm spray, 1-day protectant (1DP), wheat cultivar Monon
[3] = tested on: Puccinia recondita—PUCCRT; assay: Brown rust of wheat, 1-day protectant whole plant test; format: in vivo; conditions: 100 ppm spray, 1-day protectant (1DP), wheat cultivar Monon

Row | Compound | PHYTIN percent control of the plant disease compared with untreated, inoculated plants [1] [%] | ERYSGT percent control of the plant disease compared with untreated, inoculated plants (Erysiphe graminis—ERYSGT) [%] | LEPTNO percent control of the plant disease compared with untreated, inoculated plants [2] [%] | PUCCRT percent control of the plant disease compared with untreated, inoculated plants [3] [%] | melting point [°C]
1 | CNC(=O)C(=NOC)c1cccc(Cl)c1COc1ccc(Sc2ccc(Cl)cc2)cn1 [Compound 5, 2-Methoxyimino-N-methyl-{3-chloro-2-[5-(4-chlorophenyl)thio-2-pyridyloxy]methylphenyl}acetamide] | 99 | 85 | 98 | 100 | 116 to 118
2 | CNC(=O)C(=NOC)c1cccc(Cl)c1COc1ccc(Sc2ccc(C)cc2)cn1 [Compound 4, 2-Methoxyimino-N-methyl-{3-chloro-2-[5-(4-methylphenyl)thio-2-pyridyloxy]methylphenyl}acetamide] | 89 | 67 | 98 | 99 | 100 to 102
3 | CNC(=O)C(=NOC)c1ccccc1COc1ccc(Sc2ccccc2)cn1 [Compound 6, 2-Methoxyimino-N-methyl-[2-(5-phenylthio-2-pyridyloxy)methylphenyl]acetamide] | 90 | 80 | 98 | 98 | 95 to 96
